Laboratory results reported in patent EP0580409A2, “Cosmetic composition containing DOPA derivatives” (UNILEVER PLC, priority 1992, dated 1994).
Where a name gives a salt, the structure may show the parent alone.

Columns and labels:
[1] = test system: isolated living human hair follicles; assay: in vitro test of darkening of hair on regrowth with isolated hair follicles in culture; format: cell-based
Text: The isolation of individual hair follicles and their culture will now be described.
The method of testing includes the important step of isolating hair follicles having an undamaged hair bulb from skin, preferably from human skin, by microdissection, but preferably without the enzymic pretreatment advocated by other workers in this field.
The critical step of separating the hair follicle with intact undamaged hair bulb from the subcutaneous fatty tissue in which it is situated accordingly involves severing the hair shaft of the follicle at a point below the epidermis or skin surface, so as to leave the hair bulb intact and undamaged while still bearing a portion of the hair shaft.
(§1) In accordance with the preferred method of culture, isolated hair follicles were maintained in 500µl of Williams E medium, containing the test substance (substituted DOPA) at a concentration of 1mM, at 37°C in an atmosphere of 5% CO₂ + 95% air in individual wells of a 24 multiwell dish (Corning), which permitted detailed observations of the colour and measurements to be made of individual hair follicles.
Hair shaft length measurements and colour changes, i.e. darkening, were made on these follicles, using a Nikon Diaphot inverted binocular photo microscope with eye piece measuring graticules, over seven days in culture.
Groups of eight freshly isolated hair follicles were maintained in a Williams E medium under the conditions stated above. For a control group of follicles the medium contained no test substance. For other groups of follicles the medium contained the test substance at 0.1mM concentration of 1mM concentration, In all cases the growth medium additionally contained L-glutamine (2mM), Penicillin (50 IU/ml), streptomycin (50 ug/ml), insulin (10 ug/ml) and hydrocortisone (10 ng/ml).
(§2) The follicles were photographed at the start of the incubation period and again after incubation for two or four days. The growth and morphology of the follicles was monitored during the culture period.

[2] = test system: isolated living human hair follicles; assay: observation of inhibition or damage of cultured hair follicles; format: cell-based; conditions: follicles cultured with test substance at 0.1mM or 1mM
Experimental: as §1
Groups of eight freshly isolated hair follicles were maintained in a Williams E medium under the conditions stated above. For a control group of follicles the medium contained no test substance. […]
as §2
Melanin formation by these follicles was assessed. […] The supernatant was removed, 200ul samples added to a 96 well plate and the melanin content then determined spectrophotometrically at 540nm. […] The protein content of each sample was also determined by the Folin & Lowry method, with the absorbance being read at 540nm. […] Results were expressed as ug melanin/mg soluble protein.

[3] = test system: cultured follicles; assay: melanin formation by cultured hair follicles, spectrophotometric at 540nm; format: cell-based, human; conditions: 12 cultured follicles per assay; control 1.11
Experimental: Melanin formation by these follicles was assessed. The procedure was based on that of Gardon and Gilchrest, 1989. For each assay 12 cultured follicles were placed in 500ul of 1M NaOH and incubated overnight at 4°C. The follicles were then homogenised and centrifuged at 14,000 rpm for 2 min. The supernatant was removed, 200ul samples added to a 96 well plate and the melanin content then determined spectrophotometrically at 540nm. A standard curve was also prepared from synthetic melanin dissolved in 1M NaOH. The protein content of each sample was also determined by the Folin & Lowry method, with the absorbance being read at 540nm. […] Results were expressed as ug melanin/mg soluble protein.

[4] = 1mM test substance in Williams E medium, 96 hrs
[5] = 0.1mM test substance in Williams E medium, after 48 hrs

SMILES	DARKENING OBSERVED [1, 4]	DARKENING OBSERVED [1, 5]	inhibit or damage the follicles [2]	µg Melanin/mg soluble protein [3]
CC(=O)Oc1ccc(C[C@H](N)C(=O)O)cc1OC(C)=O [3,4-diacetyl-L-DOPA hydrochloride]	YES (96 hrs)	–	–	–
NC(C(=O)O)C(O)c1ccc(O)c(O)c1 (centres unmarked) [Dihydroxyphenylserine, 3,4-dihydroxyphenylserine]	–	YES (after 48 hrs)	did not appear to inhibit or damage the follicles	6.31 µg Melanin/mg soluble protein
COC(=O)[C@@H](N)Cc1ccc(OC(C)=O)c(OC(C)=O)c1 [methyl-3,4-diacetyl-L-DOPA hydrochloride]	YES (96 hrs)	–	–	–
CC(N)(Cc1ccc(O)c(O)c1)C(=O)O (centres unmarked) [2-methyl-3-(3,4-dihydroxyphenyl)alanine, 2-methyl-3-(3,4-dihydroxyphenylalanine)]	–	YES (after 48 hrs)	did not appear to inhibit or damage the follicles	8.36 µg Melanin/mg soluble protein
